{"source": "paper PMC10847043", "about": "“Engineered probiotic overcomes pathogen defences using signal interference and antibiotic production to treat infection in mice” (Nature Microbiology, 2024)", "tested_on": "GAS", "test": "time-dependent killing (bactericidal) assay", "assay_type": "cell-based, Streptococcus pyogenes", "conditions": "10× MIC; exponential phase GAS", "protocol": "GAS grown to exponential phase was diluted to 10^5 CFUs ml^−1. […] A 100-µl aliquot was collected at each timepoint, cells were centrifuged and pellets were resuspended in 100 µl phosphate-buffered saline (PBS). Cells were serially diluted and plated on blood agar plates. After overnight incubation at 37 °C, CFUs were enumerated and reported as CFUs ml^−1. […] Bactericidal assays were performed in biological triplicate."}
{"smiles": "CC1(C)S[C@@H]2[C@H](NC(=O)Cc3ccccc3)C(=O)N2[C@H]1C(=O)O", "note": "[penicillin G]", "values": [{"measurement": "killing of GAS, in words", "result": "complete killing"}]}
